In PMC7767178 (International Journal of Molecular Sciences, 2020):
Counter-ions that a name gives are not always drawn. Like-named read-outs stand apart in the source and are kept apart here.

Experiments:
[1] = system: Gram-negative bacteria; conditions: data not shown; ref our previous study; cited from earlier work
Excerpt: A. veronii is a widely distributed novel pathogen that can infect humans and animals. Due to overuse of broad-spectrum antibiotics in fish hatcheries, agriculture, and clinical settings, there has been an increase in antibiotic resistance of Aeromonas species, illustrating an emerging potential health concern.

[2] = system: A. veronii ACCC61732; experiment: microbe, parasite or virus in culture; type: cell-based; conditions: for MIC: Aeromonas veronii; for MICa, MIC of the antibiotic used alone: checkerboard
Excerpt: The checkerboard microtiter assay was used to determine the combinations of peptides with different antibiotics (including quinolone, rifamycin, peptide antibiotics, aminoglycoside, tetracycline, and chloramphenicol). […] The fractional inhibitory concentration (FIC) was used to calculate the combination effects using the following formula: FIC index (FICI) = MIC(peptide in combination)/MIC(peptide alone) + MIC(antibiotic in combination)/MIC(antibiotic alone). FICI ≤ 0.5 means synergistic, 0.5 < FICI ≤ 1 means additive action, 1 < FICI ≤ 4 means indifference, and FICI > 4 means antagonism.

[3] = system: A. veronii ACCC61732; experiment: Resistance development, 30 serial passages; type: cell-based; conditions: A. veronii ACCC61732, 30 passages (30 days)
Method: The development of bacterial resistance of peptides was performed by the MIC assays. […] GEN, CIP, and PMB were used as controls. […] The MIC values were measured as described above. The serial passaging was repeated for 30 days.

[4] = system: A. veronii ACCC61732; experiment: Outer membrane permeabilization, NPN assay; type: cell-based; conditions: NPN fluorescence, 1×–4× MIC
Method: The outer membrane permeabilization abilities of peptides were determined using the fluorescent NPN assay. Mid-log phase A. veronii ACCC61732 was collected by centrifugation, washed twice, and then suspended in N-2-hydroxyethylpiperazine-n-2-ethane sulfonic acid (HEPES) buffer (pH 7.4) to an OD600nm = 0.4. […] Fluorescence intensity was recorded until no further increase with a microplate reader (excitation/emission, 328/438 nm).

[5] = ACCC61732, checkerboard, Tables S1–S5, identical values of one substance within a block given once, read-out: MICa, MIC of the antibiotic used alone
[6] = Tables S1–S5, identical values of one substance within a block given once

## VCVYRGFAWNCHRRANNGVRV [N2143, analog of N6 without the β-sheet structural feature]
[1]
  antimicrobial activity against Gram-negative bacteria: lost the antimicrobial activity

## AACCGFWNVVYRNGVRVHRRN [SN1, analog of N6 without the β-sheet structural feature]
[1]
  antimicrobial activity against Gram-negative bacteria: lost the antimicrobial activity

## NC[C@H]1O[C@H](O[C@H]2[C@H](O)[C@@H](O[C@H]3O[C@H](CO)[C@@H](O)[C@H](N)[C@H]3O)[C@H](N)C[C@@H]2N)[C@H](O)[C@@H](O)[C@@H]1O [KANA, kanamycin sulfate]
[2]; [5]
  MIC: 8 µg/mL

## VCVYRCHRRANGFAWNNGVRV [N2413, analog of N6 without the β-sheet structural feature]
[1]
  antimicrobial activity against Gram-negative bacteria: lost the antimicrobial activity

## O=C(N[C@H](CO)[C@H](O)c1ccc([N+](=O)[O-])cc1)C(Cl)Cl [CHLO, chloramphenicol]
[2]; [5]
  MIC: 0.25 µg/mL

## CCn1cc(C(=O)O)c(=O)c2cc(F)c(N3CCNCC3)cc21 [NOR, norfloxacin]
[2]; [5]
  MIC: 0.5 µg/mL

## GFWNVVYRNGVAACCRVHRRN [SN3, analog of N6 without the β-sheet structural feature]
[1]
  antimicrobial activity against Gram-negative bacteria: lost the antimicrobial activity

## CNC(C)C1CCC(N)C(OC2C(N)CC(N)C(OC3OCC(C)(O)C(NC)C3O)C2O)O1 (stereo not shown) [GEN, gentamicin, reference compound]
[3]
  increase of MIC after 30 serial passages: 31 fold

## CCN1CCN(c2cc3c(cc2F)c(=O)c(C(=O)O)cn3C2CC2)CC1 [ENRO, enrofloxacin]
[2]; [5]
  MIC: 0.25 µg/mL

## CN[C@H](CC(C)C)C(=O)N[C@H]1C(=O)N[C@@H](CC(N)=O)C(=O)N[C@H]2C(=O)N[C@H]3C(=O)N[C@H](C(=O)N[C@H](C(=O)O)c4cc(O)cc(O)c4-c4cc3ccc4O)[C@H](O)c3ccc(c(Cl)c3)Oc3cc2cc(c3O[C@@H]2O[C@H](CO)[C@@H](O)[C@H](O)[C@H]2O[C@H]2C[C@](C)(N)[C@H](O)[C@H](C)O2)Oc2ccc(cc2Cl)[C@H]1O [VAN, vancomycin]
[2]; ACCC61732, read-out: MICa, MIC of the antibiotic used alone
  MIC: 16 µg/mL

## polymyxin B [PMB, reference compound]
[2]; [6]
  MICa, MIC of the antibiotic used alone: 8 µg/mL
[3]
  increase of MIC after 30 serial passages: one-fold
[4]
  ability to penetrate the outer membrane: higher ability to penetrate the outer membrane than N6NH2

## [H]/N=C(/N)N[C@H]1[C@H](O)[C@@H](O)[C@H](O[C@@H]2O[C@@H](C)[C@](O)(C=O)[C@H]2O[C@@H]2O[C@@H](CO)[C@H](O)[C@@H](O)[C@@H]2NC)[C@@H](N/C(N)=N\[H])[C@@H]1O [STRE, streptomycin sulfate]
[2]; [5]
  MIC: 64 µg/mL

## CC1COc2c(N3CCN(C)CC3)c(F)cc3c(=O)c(C(=O)O)cn1c23 (stereo not shown) [OFX, ofloxacin]
[2]; [5]
  MIC: 0.25 µg/mL

## doxycycline hyclate
[2]; [6]
  MICa, MIC of the antibiotic used alone: 1 µg/mL
